Data from patent US20130196927A1, “Smac Mimetic Therapy” (priority 2012, published 2013).

Biological target: T1, GFP-tagged cIAP-2 (Homo sapiens, UniProt Q13489)
T1 construct: expressed in transfected cells
Test: GFP-tagged cIAP-2 degradation assay (loss of GFP signal)
Type: cell-based
Conditions: GFP-cIAP expressing melanoma cell line A375, treatment for two hours; read-out: IC50 for GFP-tagged cIAP-2 degradation
From the text: To evaluate the Smac-mimetic activity in cancer cell lines, we have developed intra-cellular green fluorescence protein (GFP)-tagged cIAP-1 and GFP-tagged cIAP-2 assays. […].

T1 sequence (Q13489 whole entry): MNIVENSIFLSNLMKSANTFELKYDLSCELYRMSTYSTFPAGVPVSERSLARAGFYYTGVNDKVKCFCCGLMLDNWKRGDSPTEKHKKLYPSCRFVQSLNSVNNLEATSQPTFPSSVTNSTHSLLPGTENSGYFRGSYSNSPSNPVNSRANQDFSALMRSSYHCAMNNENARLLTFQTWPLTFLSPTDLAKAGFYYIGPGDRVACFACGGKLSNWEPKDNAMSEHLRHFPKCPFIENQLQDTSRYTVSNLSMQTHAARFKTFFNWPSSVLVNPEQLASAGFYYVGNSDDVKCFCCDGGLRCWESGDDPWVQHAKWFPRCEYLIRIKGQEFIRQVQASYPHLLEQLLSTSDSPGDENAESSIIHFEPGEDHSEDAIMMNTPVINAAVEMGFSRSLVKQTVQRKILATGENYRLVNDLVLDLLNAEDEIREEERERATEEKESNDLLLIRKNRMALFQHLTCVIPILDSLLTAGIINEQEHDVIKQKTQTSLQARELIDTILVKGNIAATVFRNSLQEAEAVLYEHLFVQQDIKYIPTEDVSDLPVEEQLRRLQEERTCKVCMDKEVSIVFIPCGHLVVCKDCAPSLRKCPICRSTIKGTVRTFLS

DC50: 150 nM
SMILES: CC[C@H](NC(=O)[C@H](C)NC)C(=O)N1C[C@@H](O)C[C@H]1Cc1c(-c2[nH]c3cc(F)ccc3c2C[C@@H]2C[C@H](O)CN2C(=O)[C@H](CC)NC(=O)[C@H](C)NC)[nH]c2cc(F)ccc12 [Compound 15, birinapant]
